{"source": "patent US5776900A", "about": "“Hemoregulatory peptides” (SmithKline Beecham Corporation, priority 1995, dated 1998)", "tested_on": "human bone marrow stromal cell line, C6", "assay": "Induction of colony stimulating activity by stromal cells; CSA of supernatant read in soft agar assay (CFU-C)", "format": "cell-based", "settings": "5% C6 supernatant, Lewis rat bone marrow cells", "experimental": "Induction of Colony Stimulating Activity by Stromal Cells\nThe human bone marrow stromal cell line, C6, is grown to confluency in plastic tissue culture dishes in RPMI-1640 medium and 5% FBS. On the day prior to the experiment this medium is changed to DMEM without added serum. To these cultures, the compounds are added for one hour, then washed from the cultures. The medium is replaced with fresh DMEM and the cells are incubated for 24 hours at 37° C., 5% CO2. After 24 hours the C6 cell culture supernatant is collected, sterile filtered, and frozen until it can be assayed for the presence of hematopoietic colony stimulating activity (CSA) as set forth below.\nBone marrow cells are obtained from Lewis rats. They are adjusted to 10^6 cells/ml in DMEM without serum. A single layer agar system utilizing the following is used: DMEM enriched with nutrients (NaHCO3, pyruvate, amino acids, vitamins, and HEPES buffer); 0.3% Bacto agar, and 20% Lewis rat serum. To this are added dilutions of C6 cell line supernatant (10-2.5%) from above along with rat bone marrow cells (final concentration=10^5 cells/ml). The agar plates are incubated at 37° C., 5% CO2 for 7-8 days. Colonies of proliferating bone marrow cells (CFU-C) are counted utilizing a microscope. The number of agar colonies counted is proportional to the amount of CSA present within the C6 bone marrow stromal cell line supernatant.", "note": "Where no end group is shown, it is not given here. [ ]: non-standard residue; d: D form. pGlu = O=C1CC[C@@H](C(=O)O)N1"}
{"substance": "(pGlu-Glu-Asp)2 -Sub-(Lys)2 ([pGlu]ED[Sub]K; not fully specified; printed as (pGlu-Glu-Asp)2 -Sub-(Lys)2; also: dimer via suberoyl-lysine linker) [Example 2]", "values": [{"measurement": "Hematopoietic Colony Stimulating Activity Using 5% Supernatant, Percent of Control", "setting": "dose 0.01 ng/ml", "result": "97% of Control"}, {"measurement": "Hematopoietic Colony Stimulating Activity Using 5% Supernatant, Percent of Control", "setting": "dose 0.1 ng/ml", "result": "154% of Control"}, {"measurement": "Hematopoietic Colony Stimulating Activity Using 5% Supernatant, Percent of Control", "setting": "dose 1 ng/ml", "result": "188% of Control"}, {"measurement": "Hematopoietic Colony Stimulating Activity Using 5% Supernatant, Percent of Control", "setting": "dose 10 ng/ml", "result": "207% of Control"}, {"measurement": "Hematopoietic Colony Stimulating Activity Using 5% Supernatant, Percent of Control", "setting": "dose 100 ng/ml", "result": "241% of Control"}, {"measurement": "Hematopoietic Colony Stimulating Activity Using 5% Supernatant, Percent of Control", "setting": "dose 1000 ng/ml", "result": "192% of Control"}]}
